From ChEMBL document CHEMBL4725412, “Augmenting the Activity of Macrolide Adjuvants against Acinetobacter baumannii” (2020)

Assays:
Format in all cases: functional
Acinetobacter baumannii [1] = assay: Antibacterial activity against Acinetobacter baumannii 3927 assessed as reduction in microbial growth incubated for 16 hrs by broth microdilution method
Acinetobacter baumannii [2] = assay: Potentiation of clarithromycin-induced antibacterial activity against Acinetobacter baumannii AB5075 assessed as clarithromycin MIC at 5 uM incubated for 16 hrs by broth microdilution method (reference value: […] ug/ml)
Acinetobacter baumannii [3] = assay: Antibacterial activity against Acinetobacter baumannii 5001 assessed as reduction in microbial growth incubated for 16 hrs by broth microdilution method
Acinetobacter baumannii [4] = assay: Potentiation of clarithromycin-induced antibacterial activity against Acinetobacter baumannii 4957 assessed as fold reduction in clarithromycin MIC at 7.5 uM incubated for 16 hrs by broth microdilution method
Acinetobacter baumannii [5] = assay: Potentiation of clarithromycin-induced antibacterial activity against Acinetobacter baumannii 3560 assessed as fold reduction in clarithromycin MIC at 7.5 uM incubated for 16 hrs by broth microdilution method
Acinetobacter baumannii [6] = assay: Antibacterial activity against Acinetobacter baumannii 3560 assessed as reduction in microbial growth incubated for 16 hrs by broth microdilution method
Acinetobacter baumannii [7] = assay: Potentiation of clarithromycin-induced antibacterial activity against Acinetobacter baumannii 8967 assessed as fold reduction in clarithromycin MIC at 7.5 uM incubated for 16 hrs by broth microdilution method
Acinetobacter baumannii [8] = assay: Potentiation of clarithromycin-induced antibacterial activity against Acinetobacter baumannii AB5075 assessed as fold reduction in clarithromycin MIC at 5 uM incubated for 16 hrs in presence of clarithromycin by broth microdilution method
Acinetobacter baumannii [9] = assay: Potentiation of clarithromycin-induced antibacterial activity against Acinetobacter baumannii 3927 assessed as fold reduction in clarithromycin MIC at 7.5 uM incubated for 16 hrs by broth microdilution method
Acinetobacter baumannii [10] = assay: Potentiation of clarithromycin-induced antibacterial activity against Acinetobacter baumannii 5197 assessed as fold reduction in clarithromycin MIC at 7.5 uM incubated for 16 hrs by broth microdilution method
Acinetobacter baumannii [11] = assay: Potentiation of clarithromycin-induced antibacterial activity against Acinetobacter baumannii 3806 assessed as fold reduction in clarithromycin MIC at 7.5 uM incubated for 16 hrs by broth microdilution method
Acinetobacter baumannii [12] = assay: Antibacterial activity against Acinetobacter baumannii 4269 assessed as reduction in microbial growth incubated for 16 hrs by broth microdilution method
Acinetobacter baumannii [13] = assay: Antibacterial activity against Acinetobacter baumannii 4957 assessed as reduction in microbial growth incubated for 16 hrs by broth microdilution method
Acinetobacter baumannii [14] = assay: Antibacterial activity against Acinetobacter baumannii 4498 assessed as reduction in microbial growth incubated for 16 hrs by broth microdilution method
Acinetobacter baumannii [15] = assay: Antibacterial activity against Acinetobacter baumannii 4027 assessed as reduction in microbial growth incubated for 16 hrs by broth microdilution method
Acinetobacter baumannii [16] = assay: Potentiation of clarithromycin-induced antibacterial activity against Acinetobacter baumannii 5711 assessed as fold reduction in clarithromycin MIC at 7.5 uM incubated for 16 hrs by broth microdilution method
Acinetobacter baumannii [17] = assay: Antibacterial activity against Acinetobacter baumannii 4857 assessed as reduction in microbial growth incubated for 16 hrs by broth microdilution method
Acinetobacter baumannii [18] = assay: Potentiation of clarithromycin-induced antibacterial activity against Acinetobacter baumannii 4448 assessed as fold reduction in clarithromycin MIC at 7.5 uM incubated for 16 hrs by broth microdilution method
Acinetobacter baumannii [19] = assay: Antibacterial activity against Acinetobacter baumannii 5711 assessed as reduction in microbial growth incubated for 16 hrs by broth microdilution method
Acinetobacter baumannii [20] = assay: Potentiation of clarithromycin-induced antibacterial activity against Acinetobacter baumannii 4795 assessed as fold reduction in clarithromycin MIC at 7.5 uM incubated for 16 hrs by broth microdilution method
Acinetobacter baumannii [21] = assay: Potentiation of clarithromycin-induced antibacterial activity against Acinetobacter baumannii 5256 assessed as fold reduction in clarithromycin MIC at 7.5 uM incubated for 16 hrs by broth microdilution method
Acinetobacter baumannii [22] = assay: Antibacterial activity against Acinetobacter baumannii AB5075 assessed as reduction in microbial growth incubated for 16 hrs by broth microdilution method
Acinetobacter baumannii [23] = assay: Potentiation of clarithromycin-induced antibacterial activity against Acinetobacter baumannii 5001 assessed as fold reduction in clarithromycin MIC at 7.5 uM incubated for 16 hrs by broth microdilution method
Acinetobacter baumannii [24] = assay: Antibacterial activity against Acinetobacter baumannii 5256 assessed as reduction in microbial growth incubated for 16 hrs by broth microdilution method
Acinetobacter baumannii [25] = assay: Potentiation of clarithromycin-induced antibacterial activity against Acinetobacter baumannii AB5075 assessed as clarithromycin MIC at 7.5 uM incubated for 16 hrs by broth microdilution method (reference value: […] ug/ml)
Acinetobacter baumannii [26] = assay: Potentiation of clarithromycin-induced antibacterial activity against Acinetobacter baumannii 4878 assessed as fold reduction in clarithromycin MIC at 7.5 uM incubated for 16 hrs by broth microdilution method
Acinetobacter baumannii [27] = assay: Antibacterial activity against Acinetobacter baumannii 3785 assessed as reduction in microbial growth incubated for 16 hrs by broth microdilution method
Acinetobacter baumannii [28] = assay: Antibacterial activity against Acinetobacter baumannii 4026 assessed as reduction in microbial growth incubated for 16 hrs by broth microdilution method
Acinetobacter baumannii [29] = assay: Potentiation of clarithromycin-induced antibacterial activity against Acinetobacter baumannii 4490 assessed as fold reduction in clarithromycin MIC at 7.5 uM incubated for 16 hrs by broth microdilution method
Acinetobacter baumannii [30] = assay: Potentiation of clarithromycin-induced antibacterial activity against Acinetobacter baumannii 4498 assessed as fold reduction in clarithromycin MIC at 7.5 uM incubated for 16 hrs by broth microdilution method
Acinetobacter baumannii [31] = assay: Antibacterial activity against Acinetobacter baumannii 4490 assessed as reduction in microbial growth incubated for 16 hrs by broth microdilution method
Acinetobacter baumannii [32] = assay: Potentiation of clarithromycin-induced antibacterial activity against Acinetobacter baumannii 4991 assessed as fold reduction in clarithromycin MIC at 7.5 uM incubated for 16 hrs by broth microdilution method
Acinetobacter baumannii [33] = assay: Potentiation of clarithromycin-induced antibacterial activity against Acinetobacter baumannii 4857 assessed as fold reduction in clarithromycin MIC at 7.5 uM incubated for 16 hrs by broth microdilution method
Acinetobacter baumannii [34] = assay: Potentiation of clarithromycin-induced antibacterial activity against Acinetobacter baumannii 4027 assessed as fold reduction in clarithromycin MIC at 7.5 uM incubated for 16 hrs by broth microdilution method
Acinetobacter baumannii [35] = assay: Potentiation of clarithromycin-induced antibacterial activity against Acinetobacter baumannii AB5075 assessed as clarithromycin MIC at 15 uM incubated for 16 hrs by broth microdilution method (reference value: […] ug/ml)
Acinetobacter baumannii [36] = assay: Antibacterial activity against Acinetobacter baumannii 4052 assessed as reduction in microbial growth incubated for 16 hrs by broth microdilution method
Acinetobacter baumannii [37] = assay: Antibacterial activity against Acinetobacter baumannii 4448 assessed as reduction in microbial growth incubated for 16 hrs by broth microdilution method
Acinetobacter baumannii [38] = assay: Antibacterial activity against Acinetobacter baumannii 4025 assessed as reduction in microbial growth incubated for 16 hrs by broth microdilution method
Acinetobacter baumannii [39] = assay: Potentiation of clarithromycin-induced antibacterial activity against Acinetobacter baumannii 4456 assessed as fold reduction in clarithromycin MIC at 7.5 uM incubated for 16 hrs by broth microdilution method
Acinetobacter baumannii [40] = assay: Antibacterial activity against Acinetobacter baumannii 4991 assessed as reduction in microbial growth incubated for 16 hrs by broth microdilution method

## Cl.Nc1nc(-c2ccc(NC(=O)Nc3cc(Br)cc(Br)c3)cc2)c[nH]1
Acinetobacter baumannii [1]
  MIC: 25 µM
Acinetobacter baumannii [2]
  MIC: 4 µg/mL
Acinetobacter baumannii [3]
  MIC: 25 µM
Acinetobacter baumannii [4]
  fold change (FC): 16
Acinetobacter baumannii [5]
  fold change (FC): 16
Acinetobacter baumannii [6]
  MIC: 25 µM
Acinetobacter baumannii [7]
  fold change (FC): 16
Acinetobacter baumannii [8]
  fold change (FC): 8
Acinetobacter baumannii [9]
  fold change (FC): 16
Acinetobacter baumannii [10]
  fold change (FC): 16
Acinetobacter baumannii [11]
  fold change (FC): 16
Acinetobacter baumannii [12]
  MIC: 25 µM
Acinetobacter baumannii [13]
  MIC: 25 µM
Acinetobacter baumannii [14]
  MIC: 25 µM
Acinetobacter baumannii [15]
  MIC: 25 µM
Acinetobacter baumannii [16]
  fold change (FC): 16
Acinetobacter baumannii [17]
  MIC: 25 µM
Acinetobacter baumannii [18]
  fold change (FC): 16
Acinetobacter baumannii [19]
  MIC: 25 µM
Acinetobacter baumannii [20]
  fold change (FC): 16
Acinetobacter baumannii [21]
  fold change (FC): 16
Acinetobacter baumannii [22]
  MIC: 50 µM
Acinetobacter baumannii [23]
  fold change (FC): 16
Acinetobacter baumannii [24]
  MIC: 25 µM
Acinetobacter baumannii [25]
  MIC: 0.25 µg/mL
Acinetobacter baumannii [26]
  fold change (FC): 16
Acinetobacter baumannii [27]
  MIC: 25 µM
Acinetobacter baumannii [28]
  MIC: 25 µM
Acinetobacter baumannii [29]
  fold change (FC): 16
Acinetobacter baumannii [30]
  fold change (FC): 16
Acinetobacter baumannii [31]
  MIC: 25 µM
Acinetobacter baumannii [32]
  fold change (FC): 16
Acinetobacter baumannii [33]
  fold change (FC): 16
Acinetobacter baumannii [34]
  fold change (FC): 16
Acinetobacter baumannii [35]
  MIC: 0.125 µg/mL
Acinetobacter baumannii [36]
  MIC: 25 µM
Acinetobacter baumannii [37]
  MIC: 25 µM
Acinetobacter baumannii [38]
  MIC: 25 µM
Acinetobacter baumannii [39]
  fold change (FC): 16
Acinetobacter baumannii [40]
  MIC: 25 µM
